Source: ChEMBL document CHEMBL1201862, “PubChem BioAssay data set” (2004)
Active and inactive are the calls of the source.

Tests used:
Large T antigen = Large T antigen (Simian virus 40, UniProt P03070); assay type: functional, Betapolyomavirus macacae;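 also: Confirmatory-stage PubChem screen for compounds that inhibit SV40 T antigen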
[1] = biological target: T1, Rac GTPase-activating protein 1 (Homo sapiens, UniProt Q9H0H5); experiment: MgcRacGAP GTPase-activating activity inhibitors, confirmation, biochemical, ADP Hunter fluorescence, primary and confirmatory (AID 624330); assay type: functional
T1 sequence (Q9H0H5 whole entry): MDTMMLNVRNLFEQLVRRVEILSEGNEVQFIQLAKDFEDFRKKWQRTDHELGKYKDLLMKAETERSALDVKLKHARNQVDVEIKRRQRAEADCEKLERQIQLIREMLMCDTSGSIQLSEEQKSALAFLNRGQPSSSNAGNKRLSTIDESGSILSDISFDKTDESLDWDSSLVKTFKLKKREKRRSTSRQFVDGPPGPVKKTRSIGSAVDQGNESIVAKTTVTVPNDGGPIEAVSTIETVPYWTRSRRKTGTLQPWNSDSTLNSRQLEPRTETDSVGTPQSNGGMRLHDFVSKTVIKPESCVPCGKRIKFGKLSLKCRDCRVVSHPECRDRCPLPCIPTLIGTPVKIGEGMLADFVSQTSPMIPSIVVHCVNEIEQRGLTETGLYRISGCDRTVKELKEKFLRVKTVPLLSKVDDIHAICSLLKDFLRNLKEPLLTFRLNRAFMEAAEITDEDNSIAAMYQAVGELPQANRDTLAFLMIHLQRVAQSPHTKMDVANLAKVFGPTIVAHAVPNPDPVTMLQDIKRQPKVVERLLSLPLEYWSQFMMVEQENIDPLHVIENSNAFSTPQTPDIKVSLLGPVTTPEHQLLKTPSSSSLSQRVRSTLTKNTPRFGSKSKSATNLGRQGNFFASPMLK

[2] = Luminescence Cell-Based Dose Retest to Confirm Inhibitors of Cancer Stem Cells. [Related pubchem assays (depositor defined):AID2717, AID2721]; assay type: functional; settings: Homo sapiens
[3] = biological target: T2, Heat shock factor protein 1 (Mus musculus, UniProt P38532); experiment: HSF1 potentiators in luciferase reporter cells, confirmation, cell-based, NIH3T3, luminescence, dose retest (AID 435004); assay type: functional;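 also: stress induced by proteasome inhibitor MG132 added 30 min after compound; luciferase reporter driven by HSF1 response element in NIH3T3 cells; actives raise luminescence as potentiators of the MG132 stress response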
T2 sequence (P38532 whole entry): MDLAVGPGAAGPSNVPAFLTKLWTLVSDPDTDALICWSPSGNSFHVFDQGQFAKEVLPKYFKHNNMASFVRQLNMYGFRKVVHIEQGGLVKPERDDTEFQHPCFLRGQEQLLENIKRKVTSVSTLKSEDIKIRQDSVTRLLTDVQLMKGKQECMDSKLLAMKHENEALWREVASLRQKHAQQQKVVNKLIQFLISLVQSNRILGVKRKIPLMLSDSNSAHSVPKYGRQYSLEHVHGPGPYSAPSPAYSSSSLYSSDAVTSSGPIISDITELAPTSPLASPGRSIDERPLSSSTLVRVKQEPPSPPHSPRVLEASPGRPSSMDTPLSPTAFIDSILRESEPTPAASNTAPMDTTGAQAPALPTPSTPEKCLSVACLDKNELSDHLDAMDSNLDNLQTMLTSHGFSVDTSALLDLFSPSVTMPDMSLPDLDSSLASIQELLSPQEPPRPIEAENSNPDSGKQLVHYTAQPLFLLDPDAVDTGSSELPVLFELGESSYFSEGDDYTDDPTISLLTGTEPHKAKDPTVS

[4] = biological target: T3, Corticotropin-releasing factor receptor 2/Corticotropin-releasing factor-binding protein (Homo sapiens, UniProt P24387+Q13324); experiment: Dose Response confirmation of uHTS hits for small molecule antagonists of the CRF-binding protein and CRF-R2 receptor complex.; assay type: functional; settings: read-out: IC50_Mean
T3 sequence (Q13324 whole entry): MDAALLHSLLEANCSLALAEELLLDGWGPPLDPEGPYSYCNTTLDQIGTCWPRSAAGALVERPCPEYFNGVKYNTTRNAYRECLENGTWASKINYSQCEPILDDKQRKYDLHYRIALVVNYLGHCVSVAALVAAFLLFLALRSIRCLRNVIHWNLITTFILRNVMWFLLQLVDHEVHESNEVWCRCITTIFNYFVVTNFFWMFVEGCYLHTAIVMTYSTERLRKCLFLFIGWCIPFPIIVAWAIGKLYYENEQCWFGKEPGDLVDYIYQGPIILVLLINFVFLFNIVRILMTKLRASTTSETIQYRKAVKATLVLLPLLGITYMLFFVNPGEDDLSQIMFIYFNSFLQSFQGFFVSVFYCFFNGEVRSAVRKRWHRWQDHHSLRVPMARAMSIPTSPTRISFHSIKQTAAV
T3 sequence (P24387 whole entry): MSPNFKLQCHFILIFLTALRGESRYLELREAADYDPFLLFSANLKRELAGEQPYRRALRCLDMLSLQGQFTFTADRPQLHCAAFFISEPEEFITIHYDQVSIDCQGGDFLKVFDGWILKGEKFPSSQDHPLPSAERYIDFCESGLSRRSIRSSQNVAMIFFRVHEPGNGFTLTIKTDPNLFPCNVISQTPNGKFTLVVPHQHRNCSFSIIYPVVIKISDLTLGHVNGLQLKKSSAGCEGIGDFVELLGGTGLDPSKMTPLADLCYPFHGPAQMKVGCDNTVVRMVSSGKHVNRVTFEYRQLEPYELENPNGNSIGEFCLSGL

[5] = biological target: T3, Corticotropin-releasing factor receptor 2/Corticotropin-releasing factor-binding protein; experiment: activators of CRF receptor 2 with binding protein – uHTS hits, confirmation (AID 602473); assay type: functional; settings: read-out: EC50_Mean
[6] = biological target: T4, Polyadenylate-binding protein 1 (Homo sapiens, UniProt P11940); experiment: PABP1 MLLE–PAM2 interaction inhibitors, dose response, miRNA deadenylation inhibitor project, biochemical, fluorescence polarization, Cy5-PAM2 peptide, secondary (AID 602260); assay type: functional; settings: read-out: IC50_Mean
T4 sequence (P11940 whole entry): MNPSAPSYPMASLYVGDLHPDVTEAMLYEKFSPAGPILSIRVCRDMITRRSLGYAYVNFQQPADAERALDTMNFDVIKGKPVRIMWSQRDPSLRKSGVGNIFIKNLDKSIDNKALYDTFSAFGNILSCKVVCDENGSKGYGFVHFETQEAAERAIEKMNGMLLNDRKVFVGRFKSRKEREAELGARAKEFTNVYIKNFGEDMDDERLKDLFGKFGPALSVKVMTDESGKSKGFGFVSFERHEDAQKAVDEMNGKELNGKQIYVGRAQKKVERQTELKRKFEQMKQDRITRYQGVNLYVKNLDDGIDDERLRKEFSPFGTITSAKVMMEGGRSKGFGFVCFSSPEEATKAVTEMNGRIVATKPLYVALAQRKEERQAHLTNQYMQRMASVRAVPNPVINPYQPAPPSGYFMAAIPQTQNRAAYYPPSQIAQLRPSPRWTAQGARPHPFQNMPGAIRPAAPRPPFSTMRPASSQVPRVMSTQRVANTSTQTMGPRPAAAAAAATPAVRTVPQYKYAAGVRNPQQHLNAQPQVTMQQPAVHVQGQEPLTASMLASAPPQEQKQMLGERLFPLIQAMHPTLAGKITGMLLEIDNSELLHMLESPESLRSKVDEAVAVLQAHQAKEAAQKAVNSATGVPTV

[7] = biological target: T4, Polyadenylate-binding protein 1; experiment: PABP1 MLLE–PAM2 binding inhibitor potency, dose response, biochemical, fluorescence polarization, FITC-PAM2 peptide (AID 602259); assay type: functional; settings: read-out: IC50_Mean
[8] = off-target signal loss in HeLa-CEM21 co-culture – HeLa F-luc CTL cells, cherry-picked, counter-screen for HIV-1 Env fusion inhibitor project, dose response (AID 652040); assay type: functional, cell-based;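 also: potency for signal decrease marking cytotoxic or nonspecific inhibition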
[9] = inhibitors of firefly luciferase expression or activity, dose response, H4 neuroglioma cells, luminescence (AID 1990); assay type: functional, cell-based
[10] = Luminescence Cell-Based Dose Response HTS to Identify Inhibitors of 5'UTR Stem-Loop Driven Prion Protein mRNA Translation in H4 Neuroglioblastoma Cells. [Related pubchem assays: 1827 (Project Summary), 1813 (Primary HTS)]; assay type: functional
[11] = inhibitors of SNCA 5'UTR-driven reporter translation, confirmation, H4 neuroglioma cells, luminescence (AID 1988); assay type: functional, cell-based
INS1 = experiment: beta cell apoptosis inhibitors, cytokine rescue, dose response, luminescence, retest (AID 449756); assay type: functional, cell-based; settings: Rattus norvegicus;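 also: cell death triggered by IL-1 beta plus TNF-alpha plus IFN-gamma mixture; protective hits raise ATP signal compared with cytokine alone wells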
[12] = HEp-2 cell cytotoxicity, dose response, cytotoxicity control for RSV inhibitor project, HTS (AID 2410); assay type: functional; settings: human respiratory syncytial virus
[13] = biological target: T5, Ubiquitin-conjugating enzyme E2 N (Homo sapiens, UniProt P61088); assay type: functional;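 also: Dose-response confirmation in a TR-FRET assay detecting UBC13-driven polyubiquitin chain formation, inhibition measured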
T5 sequence (P61088 whole entry): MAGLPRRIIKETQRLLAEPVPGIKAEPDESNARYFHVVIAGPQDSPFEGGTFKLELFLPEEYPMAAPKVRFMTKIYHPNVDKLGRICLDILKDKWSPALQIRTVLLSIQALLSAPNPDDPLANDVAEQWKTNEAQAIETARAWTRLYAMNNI

[14] = biological target: T2, Heat shock factor protein 1; experiment: inhibition of MG132-induced HSE-luciferase signal, confirmation, cell-based, NIH3T3, luminescence, dose retest (AID 2382); assay type: functional;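 also: NIH3T3 fibroblasts with HSF1-driven luciferase reporter stressed by proteasome inhibitor MG132; luminescence from HSF1-driven luciferase expression after 8 hours of MG132 stress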

Chain of Large T antigen (P03070 whole entry): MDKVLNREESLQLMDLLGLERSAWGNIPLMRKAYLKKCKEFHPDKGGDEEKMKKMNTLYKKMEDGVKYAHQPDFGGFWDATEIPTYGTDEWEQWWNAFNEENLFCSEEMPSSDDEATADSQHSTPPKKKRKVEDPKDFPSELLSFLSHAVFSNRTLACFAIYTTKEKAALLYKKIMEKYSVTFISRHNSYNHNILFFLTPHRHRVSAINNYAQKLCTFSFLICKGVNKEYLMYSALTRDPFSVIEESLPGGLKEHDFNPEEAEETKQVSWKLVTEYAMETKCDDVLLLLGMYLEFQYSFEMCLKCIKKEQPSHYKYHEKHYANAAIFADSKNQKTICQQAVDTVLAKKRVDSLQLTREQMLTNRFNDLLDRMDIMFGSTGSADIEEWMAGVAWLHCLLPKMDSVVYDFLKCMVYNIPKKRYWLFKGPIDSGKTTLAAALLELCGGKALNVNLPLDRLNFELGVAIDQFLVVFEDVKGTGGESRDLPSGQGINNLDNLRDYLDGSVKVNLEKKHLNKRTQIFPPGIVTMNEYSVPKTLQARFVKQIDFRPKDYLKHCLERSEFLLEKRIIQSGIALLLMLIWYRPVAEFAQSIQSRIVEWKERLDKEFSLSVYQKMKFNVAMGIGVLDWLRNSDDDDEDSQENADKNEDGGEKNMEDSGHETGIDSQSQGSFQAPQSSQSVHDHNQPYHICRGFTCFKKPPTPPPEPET

COc1cc(/C=N/n2cnnc2)ccc1OC(=O)c1ccncc1
IC50 (Large T antigen): 75 µM (active)
IC50 [1]: 31 µM (active)

Oc1ccc(-c2cnc(-c3ccc(O)cc3)nc2)cc1
AC50 [2]: 0.342 µM (active)
EC50 [3]: 4.99 µM (active)

Cc1ccc(CC(=O)NCCCc2ccccc2)cc1
IC50 [4]: > 47.1 µM (inactive)
EC50 [5]: > 53 µM (inactive)

COc1ccc(CN2C(=O)NC(=O)/C(=C/c3ccoc3)C2=O)cc1
IC50 (Large T antigen): 36.9 µM (active)

O=Nc1c(-c2ccccc2)[nH]n(-c2ccccc2)c1=O
EC50 [3]: 3.87 µM (active)

CN1C(=O)/C(=C2/C=CC=CN2C)OC1=S
IC50 [6]: > 66 µM (inactive)
IC50 [7]: > 66 µM (inactive)

Cc1cccc(-c2cc(C(=O)Nc3ccncc3)c3ccccc3n2)c1
EC50 [3]: 43.1 µM (active)

Cc1cc(Cl)ccc1OCC(=O)NNC(=O)C1CSC2(C)CCC(=O)N12 (stereo unspecified)
AC50 [8]: 39.8 µM (active)

COc1cc2nc(S)nc(NCc3ccc(Cl)cc3)c2cc1OC
EC50 [3]: > 260 µM (inactive)

CCCCCc1cc(=O)oc2c(C(CCN3CCCC(C)C3)c3cc(OC)c(OC)c(OC)c3)c(OC)cc(OC)c12 (stereo unspecified)
EC50 [9]: > 120 µM (not active)
EC50 [10]: > 120 µM (not active)
EC50 [11]: > 120 µM (not active)
AC50 [2]: 6.25 µM (active)
AC50 (INS1): 8.07 µM (active)

O=C1NC(c2ccccc2)=C(c2nc3ccccc3s2)C(c2ccc(F)cc2)N1 (stereo unspecified)
CC50 [12]: 10.4 µM (active)
EC50 [9]: > 60 µM (not active)
EC50 [10]: > 120 µM (not active)
EC50 [11]: 20.8 µM (active)

ClCC1=Nc2cccc3cccc(c23)N1
IC50 (Large T antigen): 10 µM (active)

CC(C)NC(=O)NC(=O)COc1ccc(Br)cc1Br
EC50 [3]: > 260 µM (inactive)

Oc1c(Br)cc(-c2ccccc2)cc1Br
IC50 [4]: 10.1 µM (active)
EC50 [5]: > 53 µM (inactive)
IC50 [1]: 85 µM (active)

O=C(NC(=S)Nc1ccc(O)cc1)c1cncc(Br)c1
IC50 (Large T antigen): 6.41 µM (active)

COc1ccc(NC(=O)CSc2nnc(Cn3cnc([N+](=O)[O-])n3)n2C)cc1
EC50 [3]: > 260 µM (inactive)

CC1=C(C(=O)N(C(C)C)C(C)C)CC(CC(=O)NC2CCCCC2)C(=O)N1Cc1ccccc1 (stereo unspecified)
IC50 [4]: > 47.1 µM (inactive)
EC50 [5]: > 53 µM (inactive)

CS(=O)(=O)N1CCN(C(=O)C(Sc2ccccc2)c2ccccc2)CC1 (stereo unspecified)
IC50 [6]: > 66 µM (inactive)
IC50 [7]: > 66 µM (inactive)

OCCN1CCN(CC/C=C2/c3ccccc3Sc3ccc(Cl)cc32)CC1
IC50 [13]: > 20 µM (inactive)

Cc1cc(C(=O)NNC(=O)C(CCC(N)=O)NS(=O)(=O)c2ccc(Cl)cc2)c(C)o1 (stereo unspecified)
IC50 [4]: > 47.1 µM (inactive)
EC50 [5]: > 53 µM (inactive)

O=C(NCc1ccccc1)c1ccc(Cl)cc1
IC50 [4]: > 47.1 µM (inactive)
EC50 [5]: > 53 µM (inactive)

COc1cc(C(c2c(C)n[nH]c2O)c2c(C)n[nH]c2O)ccc1OC(=O)c1cccc([N+](=O)[O-])c1
IC50 (Large T antigen): > 100 µM (active)

Fc1ccc(CN(Cc2ccccc2)C(c2cccs2)c2nnnn2C2CCCCC2)cc1 (stereo unspecified)
AC50 (INS1): 6.47 µM (active)

CCc1ccc(S(=O)(=O)N=C(S)NC2CCCCC2)cc1
IC50 [6]: > 66 µM (inactive)
IC50 [7]: > 66 µM (inactive)

O=C1CC2CS(=O)(=O)CC2N1c1ccc(Oc2ccccc2)cc1 (stereo unspecified)
IC50 [4]: > 47.1 µM (inactive)
EC50 [5]: > 53 µM (inactive)

COc1cccc(CNc2ccc(Br)cn2)c1O
EC50 [3]: 34.1 µM (active)

CCC(=O)NC(c1cccs1)c1cc(Cl)c2ccccc2c1O (stereo unspecified)
IC50 [13]: > 20 µM (inactive)

COc1ccc(O)c(/C=N/NC(=O)c2cccc(N3CCCC3=O)c2)c1
AC50 (INS1): 3.55 µM (active)

Nn1cnnc1N/N=C/c1cc([N+](=O)[O-])c(Cl)cc1Cl
EC50 [3]: > 260 µM (inactive)

COc1ccc2[nH]c3c(=O)n(CCCCC(=O)N4CCC(C(N)=O)CC4)c(=S)[nH]c3c2c1
IC50 [6]: > 66 µM (inactive)
IC50 [7]: > 66 µM (inactive)
IC50 [1]: 55.4 µM (active)

CC(Nc1ccc([N+](=O)[O-])cc1[N+](=O)[O-])c1ccccc1 (stereo unspecified)
IC50 [4]: 34.7 µM (active)
EC50 [5]: > 53 µM (inactive)

O=C(CSc1c[nH]nn1)Nc1ccc(O)c(C(=O)O)c1
EC50 [14]: > 195 µM (not active)
IC50 [6]: > 66 µM (inactive)
IC50 [7]: > 66 µM (inactive)

Cc1ccc(NC(=O)N2CCCC2C(=O)Nc2c(C)cc(C)cc2C)cc1 (stereo unspecified)
EC50 [3]: > 260 µM (inactive)

O=C(CSc1nnc(C2COc3ccccc3O2)o1)N1CCCC1 (stereo unspecified)
IC50 [6]: > 66 µM (inactive)
IC50 [7]: > 66 µM (inactive)

Cc1ccnc(NS(=O)(=O)c2ccc(NC(=O)COc3ccccc3)cc2)n1
EC50 [9]: > 120 µM (not active)
EC50 [10]: > 120 µM (not active)
EC50 [14]: > 195 µM (not active)
EC50 [11]: > 120 µM (not active)

CC(=O)c1c(C)oc2ccc(N(C(C)=O)S(=O)(=O)c3cccc4cccnc34)cc12
AC50 (INS1): 3.85 µM (active)

O=C(NCc1nnc(SCc2ccccc2)n1-c1ccccc1)C12CC3CC(CC(C3)C1)C2
EC50 [3]: > 260 µM (inactive)

COc1ccnc2c1c(=O)n(Cc1cccc(F)c1)c(=O)n2C
IC50 [13]: > 20 µM (inactive)
